From publication PMC5218480 (PLoS ONE, 2017) come the findings set out here.

Each structure is given as a SMILES string.

The assay deals with MV-4-11 cells. The assay can be described thus: Gene expression microarray analysis (Affymetrix PrimeView) and GSEA. Type of assay: cell-based, human. More on the design: RFU PODN (11730768_x_at) / Fold change /veh PODN (11730768_x_at) / RFU LINC00158 (11744669_a_at) / Fold change /veh LINC00158 (11744669_a_at) / RFU DUSP10 (11751237_a_at) / Fold change /veh DUSP10 (11751237_a_at) / RFU ID3 (11757404_x_at) / Fold change /veh ID3 (11757404_x_at) / RFU PLEKHG5 (11737974_s_at) / Fold change /veh PLEKHG5 (11737974_s_at) / RFU LRRC4B (11730491_at) / Fold change /veh LRRC4B (11730491_at) / RFU GIMAP4 (11747438_a_at) / Fold change /veh GIMAP4 (11747438_a_at) / RFU KRT8 (11758183_x_at) / Fold change /veh KRT8 (11758183_x_at) / RFU CNN1 (11734310_a_at) / Fold change /veh CNN1 (11734310_a_at) / RFU VPS37D (11726825_at) / Fold change /veh VPS37D (11726825_at) / RFU C10orf10 (11716522_x_at) / Fold change /veh C10orf10 (11716522_x_at) / RFU KIR2DL2 /// KIR2DL4 /// KIR2DL5A /// KIR2DL5B /// KIR2DS1 /// KIR2DS2 /// KIR2DS3 /// KIR2DS4 /// KIR3DL3 /// KIR3DL3 /// KIR3DS1 (11738374_at) / Fold change /veh KIR2DL2 /// KIR2DL4 /// KIR2DL5A /// KIR2DL5B /// KIR2DS1 /// KIR2DS2 /// KIR2DS3 /// KIR2DS4 /// KIR3DL3 /// KIR3DL3 /// KIR3DS1 (11738374_at) / RFU C1QL1 (11718748_at) / Fold change /veh C1QL1 (11718748_at) / RFU TMPRSS4 (11747572_a_at) / Fold change /veh TMPRSS4 (11747572_a_at) / RFU HAMP (11756126_x_at) / Fold change /veh HAMP (11756126_x_at) / RFU RNFT2 (11725882_a_at) / Fold change /veh RNFT2 (11725882_a_at) / RFU NR4A2 (11747474_a_at) / Fold change /veh NR4A2 (11747474_a_at) / RFU ABCC12 (11746883_a_at) / Fold change /veh ABCC12 (11746883_a_at) / RFU TMEM136 (11760407_x_at) / Fold change /veh TMEM136 (11760407_x_at) / RFU CLDN22 /// WWC2 (11732394_at) / Fold change /veh CLDN22 /// WWC2 (11732394_at) / RFU HLA-DPB1 (11760878_x_at) / Fold change /veh HLA-DPB1 (11760878_x_at) / RFU SPINT1 (11716480_a_at) / Fold change /veh SPINT1 (11716480_a_at) / RFU GAP43 (11754022_s_at) / Fold change /veh GAP43 (11754022_s_at) / RFU A4GNT (11735810_at) / Fold change /veh A4GNT (11735810_at) / RFU PRB3 (11715151_x_at) / Fold change /veh PRB3 (11715151_x_at) / RFU TUBB4B (11761932_at) / Fold change /veh TUBB4B (11761932_at) / RFU CAPN14 (11732068_a_at) / Fold change /veh CAPN14 (11732068_a_at) / RFU TMCC2 (11721928_a_at) / Fold change /veh TMCC2 (11721928_a_at) / RFU IRGQ (11745062_a_at) / Fold change /veh IRGQ (11745062_a_at) / RFU FAM174B (11720279_a_at) / Fold change /veh FAM174B (11720279_a_at) / RFU TMPRSS4 (11748680_a_at) / Fold change /veh TMPRSS4 (11748680_a_at) / RFU FAM212B (11763350_a_at) / Fold change /veh FAM212B (11763350_a_at) / RFU PLEKHG5 (11743358_a_at) / Fold change /veh PLEKHG5 (11743358_a_at) / RFU ZSCAN30 (11745921_a_at) / Fold change /veh ZSCAN30 (11745921_a_at) / RFU CMKLR1 (11741424_a_at) / Fold change /veh CMKLR1 (11741424_a_at) / RFU LOC101060620 /// MAPK8IP1 (11723275_at) / Fold change /veh LOC101060620 /// MAPK8IP1 (11723275_at) / RFU SPTSSB (11747773_x_at) / Fold change /veh SPTSSB (11747773_x_at) / RFU PRSS12 (11739890_at) / Fold change /veh PRSS12 (11739890_at) / RFU BIN1 (11741810_x_at) / Fold change /veh BIN1 (11741810_x_at) / RFU WNT11 (11732464_a_at) / Fold change /veh WNT11 (11732464_a_at) / RFU C10orf10 (11716521_a_at) / Fold change /veh C10orf10 (11716521_a_at) / RFU C5orf56 (11738089_at) / Fold change /veh C5orf56 (11738089_at) / RFU CYB561 (11721691_x_at) / Fold change /veh CYB561 (11721691_x_at) / RFU ANKRD19P (11752326_a_at) / Fold change /veh ANKRD19P (11752326_a_at) / RFU OR2T12 /// OR2T33 /// OR2T8 (11738714_s_at) / Fold change /veh OR2T12 /// OR2T33 /// OR2T8 (11738714_s_at) / RFU VCAN (11748164_a_at) / Fold change /veh VCAN (11748164_a_at) / RFU JSRP1 (11732532_at) / Fold change /veh JSRP1 (11732532_at) / RFU KRTAP10-11 (11738290_x_at) / Fold change /veh KRTAP10-11 (11738290_x_at) / RFU MYO3A (11730013_a_at) / Fold change /veh MYO3A (11730013_a_at) / RFU EBF3 (11725865_a_at) / Fold change /veh EBF3 (11725865_a_at) / RFU CAMK2N1 (11719241_x_at) / Fold change /veh CAMK2N1 (11719241_x_at) / RFU C5orf56 (11738088_a_at) / Fold change /veh C5orf56 (11738088_a_at) / RFU OLFML3 (11715873_a_at) / Fold change /veh OLFML3 (11715873_a_at) / RFU LOC100653217 /// NTM (11731650_a_at) / Fold change /veh LOC100653217 /// NTM (11731650_a_at) / RFU MAPK11 (11762145_a_at) / Fold change /veh MAPK11 (11762145_a_at) / RFU FIZ1 (11724087_x_at) / Fold change /veh FIZ1 (11724087_x_at) / RFU OASL (11726364_x_at) / Fold change /veh OASL (11726364_x_at) / RFU SOX15 (11748057_x_at) / Fold change /veh SOX15 (11748057_x_at) / RFU CD79A (11719716_a_at) / Fold change /veh CD79A (11719716_a_at) / RFU HIST1H1D (11736915_at) / Fold change /veh HIST1H1D (11736915_at) / RFU CASKIN2 (11723855_a_at) / Fold change /veh CASKIN2 (11723855_a_at) / RFU LOC730098 (11760151_x_at) / Fold change /veh LOC730098 (11760151_x_at) / RFU OR4N2 (11742367_at) / Fold change /veh OR4N2 (11742367_at) / RFU PRRT2 (11749266_a_at) / Fold change /veh PRRT2 (11749266_a_at) / RFU SNX32 (11753110_a_at) / Fold change /veh SNX32 (11753110_a_at) / RFU CDHR5 (11726645_a_at) / Fold change /veh CDHR5 (11726645_a_at) / RFU RCAN1 (11760418_a_at) / Fold change /veh RCAN1 (11760418_a_at) / RFU FAM167A (11723789_a_at) / Fold change /veh FAM167A (11723789_a_at) / RFU FAM26E (11764081_at) / Fold change /veh FAM26E (11764081_at) / RFU ISYNA1 (11749810_s_at) / Fold change /veh ISYNA1 (11749810_s_at) / RFU ACY1 (11761880_at) / Fold change /veh ACY1 (11761880_at) / RFU 11764098_at / Fold change /veh 11764098_at / RFU SAMD14 (11745864_x_at) / Fold change /veh SAMD14 (11745864_x_at) / RFU NPB (11741838_a_at) / Fold change /veh NPB (11741838_a_at) / RFU TMPRSS6 (11731388_a_at) / Fold change /veh TMPRSS6 (11731388_a_at) / RFU KRTAP10-2 (11738614_at) / Fold change /veh KRTAP10-2 (11738614_at) / RFU ARHGAP8 /// PRR5-ARHGAP8 (11727945_x_at) / Fold change /veh ARHGAP8 /// PRR5-ARHGAP8 (11727945_x_at) / RFU KRTAP5-7 /// NADSYN1 (11734609_at) / Fold change /veh KRTAP5-7 /// NADSYN1 (11734609_at) / RFU RASL12 (11751679_a_at) / Fold change /veh RASL12 (11751679_a_at) / RFU CDKN2B (11736163_a_at) / Fold change /veh CDKN2B (11736163_a_at) / RFU PRF1 (11729649_at) / Fold change /veh PRF1 (11729649_at) / RFU, ZNF638 /// ZNF638-IT1 / Fold change vs veh, ZNF638 /// ZNF638-IT1 / RFU, PANK3 / Fold change vs veh, PANK3 / RFU, SH3YL1 / Fold change vs veh, SH3YL1 / RFU, ZEB2 / Fold change vs veh, ZEB2 / RFU, NRIP1 / Fold change vs veh, NRIP1 / RFU, PTTG1IP / Fold change vs veh, PTTG1IP / RFU, CAPN2 / Fold change vs veh, CAPN2 / RFU, MED14 / Fold change vs veh, MED14 / RFU, SNORA58 / Fold change vs veh, SNORA58 / RFU, C1orf63 / Fold change vs veh, C1orf63 / RFU, LRRFIP1 / Fold change vs veh, LRRFIP1 / RFU, NDUFAF7 / Fold change vs veh, NDUFAF7 / RFU, SLC12A2 / Fold change vs veh, SLC12A2 / RFU, IBTK / Fold change vs veh, IBTK / RFU, ESF1 / Fold change vs veh, ESF1 / Fold change vs veh, TMEM50B / RFU, TAOK1 / Fold change vs veh, TAOK1 / RFU, ACBD3 / Fold change vs veh, ACBD3 / RFU, TMA16 / Fold change vs veh, TMA16 / RFU, RWDD3 / Fold change vs veh, RWDD3 / RFU, BCAT1 / Fold change vs veh, BCAT1 / RFU, EDEM3 / Fold change vs veh, EDEM3 / RFU, TMEM33 / Fold change vs veh, TMEM33 / RFU, WDR75 / Fold change vs veh, WDR75 / RFU, AHCTF1 / Fold change vs veh, AHCTF1 / RFU, TFRC / Fold change vs veh, TFRC / RFU, ZDHHC17 / Fold change vs veh, ZDHHC17 / RFU, NOM1 / Fold change vs veh, NOM1 / RFU, ARL8B / Fold change vs veh, ARL8B / RFU, ZBTB11 / Fold change vs veh, ZBTB11 / RFU, TAMM41 / Fold change vs veh, TAMM41 / RFU, KIAA1704 /// LOC100996395 / Fold change vs veh, KIAA1704 /// LOC100996395 / RFU, ING1 / Fold change vs veh, ING1 / RFU, TRMT61B / Fold change vs veh, TRMT61B / RFU, FUBP3 / Fold change vs veh, FUBP3 / RFU, TP53 / Fold change vs veh, TP53 / RFU, TNKS2 / Fold change vs veh, TNKS2 / RFU, ZFP14 / Fold change vs veh, ZFP14 / RFU, ACTR2 / Fold change vs veh, ACTR2 / RFU, PPP3R1 / Fold change vs veh, PPP3R1 / RFU, PIK3R1 / Fold change vs veh, PIK3R1 / RFU, HNRNPA1 / Fold change vs veh, HNRNPA1 / RFU, RNF170 / Fold change vs veh, RNF170 / RFU, ZNF28 / Fold change vs veh, ZNF28 / RFU, RNGTT / Fold change vs veh, RNGTT / RFU, OGT / Fold change vs veh, OGT / RFU, BRD1 / Fold change vs veh, BRD1 / RFU, MARS / Fold change vs veh, MARS / RFU, ZNF655 / Fold change vs veh, ZNF655 / RFU, FAHD1 / Fold change vs veh, FAHD1 / RFU, BDP1 / Fold change vs veh, BDP1 / RFU, LRRCC1 / Fold change vs veh, LRRCC1 / RFU, ARID1A / Fold change vs veh, ARID1A / RFU, ZNF146 / Fold change vs veh, ZNF146 / RFU, ZNF330 / Fold change vs veh, ZNF330 / RFU, GPN3 / Fold change vs veh, GPN3 / RFU, C9orf123 / Fold change vs veh, C9orf123 / RFU, N4BP2L2 / Fold change vs veh, N4BP2L2 / RFU, ARFIP1 / Fold change vs veh, ARFIP1 / RFU, FAM179B / Fold change vs veh, FAM179B / RFU, BCL10 / Fold change vs veh, BCL10 / RFU, UHRF1BP1L / Fold change vs veh, UHRF1BP1L / RFU, BET1 / Fold change vs veh, BET1 / RFU, CNOT2 / Fold change vs veh, CNOT2 / RFU, ZNF268 / Fold change vs veh, ZNF268 / Fold change vs veh, ZNF507 / RFU, DGCR2 / Fold change vs veh, DGCR2 / RFU, WDSUB1 / Fold change vs veh, WDSUB1 / Fold change vs veh, HSP90B1 /// MIR3652 / RFU, ADSS / Fold change vs veh, ADSS / RFU, GK / Fold change vs veh, GK / RFU, ZNF148 / Fold change vs veh, ZNF148 / RFU, TAF9 / Fold change vs veh, TAF9 / RFU, SLC1A5 / Fold change vs veh, SLC1A5 / RFU, SLMO2 / Fold change vs veh, SLMO2 / RFU, ABCC4 / Fold change vs veh, ABCC4 / RFU, LOC101060439 /// RAP1B / Fold change vs veh, LOC101060439 /// RAP1B / RFU, RFX7 / Fold change vs veh, RFX7 / RFU, GTPBP10 / Fold change vs veh, GTPBP10 / RFU, CNEP1R1 / Fold change vs veh, CNEP1R1 / RFU, BIVM-ERCC5 /// ERCC5 / Fold change vs veh, BIVM-ERCC5 /// ERCC5 / RFU, ILF3 / Fold change vs veh, ILF3 / RFU 11762660_at / Fold change /veh 11762660_at / RFU VCAN (11757783_s_at) / Fold change /veh VCAN (11757783_s_at) / RFU DDX43 (11728927_at) / Fold change /veh DDX43 (11728927_at) / RFU KRT8 (11758188_x_at) / Fold change /veh KRT8 (11758188_x_at) / RFU NKD1 (11759106_at) / Fold change /veh NKD1 (11759106_at) / RFU SRD5A1 (11742802_a_at) / Fold change /veh SRD5A1 (11742802_a_at) / RFU TPSAB1 /// TPSB2 (11721975_s_at) / Fold change /veh TPSAB1 /// TPSB2 (11721975_s_at) / RFU GSTM3 (11746129_a_at) / Fold change /veh GSTM3 (11746129_a_at) / RFU IL23R (11737362_x_at) / Fold change /veh IL23R (11737362_x_at) / RFU TMEM51 (11727254_a_at) / Fold change /veh TMEM51 (11727254_a_at) / RFU PIWIL2 (11732686_x_at) / Fold change /veh PIWIL2 (11732686_x_at) / RFU ORM1 (11744905_x_at) / Fold change /veh ORM1 (11744905_x_at) / RFU CCDC152 (11743942_at) / Fold change /veh CCDC152 (11743942_at) / RFU ECM1 (11717891_a_at) / Fold change /veh ECM1 (11717891_a_at) / RFU IL23R (11748794_a_at) / Fold change /veh IL23R (11748794_a_at) / RFU TNFAIP8L3 (11732012_x_at) / Fold change /veh TNFAIP8L3 (11732012_x_at) / RFU MBOAT4 (11741988_at) / Fold change /veh MBOAT4 (11741988_at) / RFU 11764193_at / Fold change /veh 11764193_at / RFU TMEM53 (11763286_at) / Fold change /veh TMEM53 (11763286_at) / RFU MAGEB2 (11727129_at) / Fold change /veh MAGEB2 (11727129_at) / RFU TMEM200A (11744735_a_at) / Fold change /veh TMEM200A (11744735_a_at) / RFU CCDC152 (11751479_a_at) / Fold change /veh CCDC152 (11751479_a_at) / RFU FAM211A (11726209_a_at) / Fold change /veh FAM211A (11726209_a_at) / RFU RGS16 (11746705_a_at) / Fold change /veh RGS16 (11746705_a_at) / RFU VCAN (11755009_s_at) / Fold change /veh VCAN (11755009_s_at) / RFU RHOB (11743442_s_at) / Fold change /veh RHOB (11743442_s_at) / RFU RGS16 (11720943_a_at) / Fold change /veh RGS16 (11720943_a_at) / RFU RGS16 (11720944_at) / Fold change /veh RGS16 (11720944_at) / RFU, VPS4B / Fold change vs veh, VPS4B / RFU, CREB1 / Fold change vs veh, CREB1 / RFU, DNAJC13 / Fold change vs veh, DNAJC13 / RFU, GNAQ / Fold change vs veh, GNAQ / RFU, CDK5R1 / Fold change vs veh, CDK5R1 / RFU, ZRANB3 / Fold change vs veh, ZRANB3 / RFU, CUL4A / Fold change vs veh, CUL4A / RFU, CCNY / Fold change vs veh, CCNY / RFU, UFL1 / Fold change vs veh, UFL1 / RFU, COG3 / Fold change vs veh, COG3 / RFU, DIAPH2 / Fold change vs veh, DIAPH2 / RFU, SKA2 / Fold change vs veh, SKA2 / RFU, AFF3 / Fold change vs veh, AFF3 / RFU, LMF1 / Fold change vs veh, LMF1 / RFU, IPO11 / Fold change vs veh, IPO11 / RFU, DFFB / Fold change vs veh, DFFB / RFU, FOXP1 / Fold change vs veh, FOXP1 / RFU, CARD8 / Fold change vs veh, CARD8 / RFU, STRN3 / Fold change vs veh, STRN3 / RFU, ADK / Fold change vs veh, ADK / RFU, RASSF2 / Fold change vs veh, RASSF2 / RFU, WIPF1 / Fold change vs veh, WIPF1 / RFU, LARP1B / Fold change vs veh, LARP1B / RFU, RASA1 / Fold change vs veh, RASA1 / RFU, RB1 / Fold change vs veh, RB1 / RFU, PPFIA1 / Fold change vs veh, PPFIA1 / RFU, MAT2A / Fold change vs veh, MAT2A / RFU, CCT5 / Fold change vs veh, CCT5 / RFU, WDR92 / Fold change vs veh, WDR92 / RFU, CUX1 / Fold change vs veh, CUX1 / RFU, TTC7A / Fold change vs veh, TTC7A / RFU, TMEM135 / Fold change vs veh, TMEM135 / RFU, DEPTOR / Fold change vs veh, DEPTOR / RFU, CPM / Fold change vs veh, CPM / RFU, DNAJB6 / Fold change vs veh, DNAJB6 / RFU, CACNA2D3 / Fold change vs veh, CACNA2D3 / RFU, DTX4 / Fold change vs veh, DTX4 / RFU, TFCP2 / Fold change vs veh, TFCP2 / RFU, GMCL1 /// GMCL1P1 / Fold change vs veh, GMCL1 /// GMCL1P1 / RFU, AEBP2 / Fold change vs veh, AEBP2 / RFU, SNHG1 /// SNORD22 /// SNORD25 /// SNORD26 /// SNORD27 /// SNORD28 /// SNORD29 /// SNORD31 / Fold change vs veh, SNHG1 /// SNORD22 /// SNORD25 /// SNORD26 /// SNORD27 /// SNORD28 /// SNORD29 /// SNORD31 / Fold change (Aza/veh), C12orf56 (ProbeSet 11735607_a_at) / Fold change (ACY-1035/veh), C12orf56 (ProbeSet 11735607_a_at) / Fold change (Aza/veh), FGFR1OP (ProbeSet 11751329_s_at) / Fold change (ACY-1035/veh), FGFR1OP (ProbeSet 11751329_s_at) / Fold change (Aza/veh), VPS36 (ProbeSet 11739960_a_at) / Fold change (ACY-1035/veh), VPS36 (ProbeSet 11739960_a_at) / RFU SYPL1 (11715823_x_at) / Fold change /veh SYPL1 (11715823_x_at) / RFU IGFBP7 (11715501_s_at) / Fold change /veh IGFBP7 (11715501_s_at) / RFU REEP3 (11722064_at) / Fold change /veh REEP3 (11722064_at) / RFU IGLL1 (11728026_x_at) / Fold change /veh IGLL1 (11728026_x_at): dose or concentration left out as unconfirmed. The following applies: MV-4-11 cells, 48 hours.

In the case of `Nc1ccc(-c2cccs2)cc1NC(=O)c1ccc2c(c1)cc(C1CC1)n2CCN1CCOCC1` [ACY-1035], the “Fold change /veh CCDC152 (11743942_at)” value is listed as 1.01.
